# From publication PMC5218480 (PLoS ONE, 2017)
# Tested on: MV-4-11 cells
# Assay: Gene expression microarray analysis (Affymetrix PrimeView) and GSEA
# Assay type: cell-based, human
# Set-up: RFU PODN (11730768_x_at) / Fold change /veh PODN (11730768_x_at) / RFU LINC00158 (11744669_a_at) / Fold change /veh LINC00158 (11744669_a_at) / RFU DUSP10 (11751237_a_at) / Fold change /veh DUSP10 (11751237_a_at) / RFU ID3 (11757404_x_at) / Fold change /veh ID3 (11757404_x_at) / RFU PLEKHG5 (11737974_s_at) / Fold change /veh PLEKHG5 (11737974_s_at) / RFU LRRC4B (11730491_at) / Fold change /veh LRRC4B (11730491_at) / RFU GIMAP4 (11747438_a_at) / Fold change /veh GIMAP4 (11747438_a_at) / RFU KRT8 (11758183_x_at) / Fold change /veh KRT8 (11758183_x_at) / RFU CNN1 (11734310_a_at) / Fold change /veh CNN1 (11734310_a_at) / RFU VPS37D (11726825_at) / Fold change /veh VPS37D (11726825_at) / RFU C10orf10 (11716522_x_at) / Fold change /veh C10orf10 (11716522_x_at) / RFU KIR2DL2 /// KIR2DL4 /// KIR2DL5A /// KIR2DL5B /// KIR2DS1 /// KIR2DS2 /// KIR2DS3 /// KIR2DS4 /// KIR3DL3 /// KIR3DL3 /// KIR3DS1 (11738374_at) / Fold change /veh KIR2DL2 /// KIR2DL4 /// KIR2DL5A /// KIR2DL5B /// KIR2DS1 /// KIR2DS2 /// KIR2DS3 /// KIR2DS4 /// KIR3DL3 /// KIR3DL3 /// KIR3DS1 (11738374_at) / RFU C1QL1 (11718748_at) / Fold change /veh C1QL1 (11718748_at) / RFU TMPRSS4 (11747572_a_at) / Fold change /veh TMPRSS4 (11747572_a_at) / RFU HAMP (11756126_x_at) / Fold change /veh HAMP (11756126_x_at) / RFU RNFT2 (11725882_a_at) / Fold change /veh RNFT2 (11725882_a_at) / RFU NR4A2 (11747474_a_at) / Fold change /veh NR4A2 (11747474_a_at) / RFU ABCC12 (11746883_a_at) / Fold change /veh ABCC12 (11746883_a_at) / RFU TMEM136 (11760407_x_at) / Fold change /veh TMEM136 (11760407_x_at) / RFU CLDN22 /// WWC2 (11732394_at) / Fold change /veh CLDN22 /// WWC2 (11732394_at) / RFU HLA-DPB1 (11760878_x_at) / Fold change /veh HLA-DPB1 (11760878_x_at) / RFU SPINT1 (11716480_a_at) / Fold change /veh SPINT1 (11716480_a_at) / RFU GAP43 (11754022_s_at) / Fold change /veh GAP43 (11754022_s_at) / RFU A4GNT (11735810_at) / Fold change /veh A4GNT (11735810_at) / RFU PRB3 (11715151_x_at) / Fold change /veh PRB3 (11715151_x_at) / RFU TUBB4B (11761932_at) / Fold change /veh TUBB4B (11761932_at) / RFU CAPN14 (11732068_a_at) / Fold change /veh CAPN14 (11732068_a_at) / RFU TMCC2 (11721928_a_at) / Fold change /veh TMCC2 (11721928_a_at) / RFU IRGQ (11745062_a_at) / Fold change /veh IRGQ (11745062_a_at) / RFU FAM174B (11720279_a_at) / Fold change /veh FAM174B (11720279_a_at) / RFU TMPRSS4 (11748680_a_at) / Fold change /veh TMPRSS4 (11748680_a_at) / RFU FAM212B (11763350_a_at) / Fold change /veh FAM212B (11763350_a_at) / RFU PLEKHG5 (11743358_a_at) / Fold change /veh PLEKHG5 (11743358_a_at) / RFU ZSCAN30 (11745921_a_at) / Fold change /veh ZSCAN30 (11745921_a_at) / RFU CMKLR1 (11741424_a_at) / Fold change /veh CMKLR1 (11741424_a_at) / RFU LOC101060620 /// MAPK8IP1 (11723275_at) / Fold change /veh LOC101060620 /// MAPK8IP1 (11723275_at) / RFU SPTSSB (11747773_x_at) / Fold change /veh SPTSSB (11747773_x_at) / RFU PRSS12 (11739890_at) / Fold change /veh PRSS12 (11739890_at) / RFU BIN1 (11741810_x_at) / Fold change /veh BIN1 (11741810_x_at) / RFU WNT11 (11732464_a_at) / Fold change /veh WNT11 (11732464_a_at) / RFU C10orf10 (11716521_a_at) / Fold change /veh C10orf10 (11716521_a_at) / RFU C5orf56 (11738089_at) / Fold change /veh C5orf56 (11738089_at) / RFU CYB561 (11721691_x_at) / Fold change /veh CYB561 (11721691_x_at) / RFU ANKRD19P (11752326_a_at) / Fold change /veh ANKRD19P (11752326_a_at) / RFU OR2T12 /// OR2T33 /// OR2T8 (11738714_s_at) / Fold change /veh OR2T12 /// OR2T33 /// OR2T8 (11738714_s_at) / RFU VCAN (11748164_a_at) / Fold change /veh VCAN (11748164_a_at) / RFU JSRP1 (11732532_at) / Fold change /veh JSRP1 (11732532_at) / RFU KRTAP10-11 (11738290_x_at) / Fold change /veh KRTAP10-11 (11738290_x_at) / RFU MYO3A (11730013_a_at) / Fold change /veh MYO3A (11730013_a_at) / RFU EBF3 (11725865_a_at) / Fold change /veh EBF3 (11725865_a_at) / RFU CAMK2N1 (11719241_x_at) / Fold change /veh CAMK2N1 (11719241_x_at) / RFU C5orf56 (11738088_a_at) / Fold change /veh C5orf56 (11738088_a_at) / RFU OLFML3 (11715873_a_at) / Fold change /veh OLFML3 (11715873_a_at) / RFU LOC100653217 /// NTM (11731650_a_at) / Fold change /veh LOC100653217 /// NTM (11731650_a_at) / RFU MAPK11 (11762145_a_at) / Fold change /veh MAPK11 (11762145_a_at) / RFU FIZ1 (11724087_x_at) / Fold change /veh FIZ1 (11724087_x_at) / RFU OASL (11726364_x_at) / Fold change /veh OASL (11726364_x_at) / RFU SOX15 (11748057_x_at) / Fold change /veh SOX15 (11748057_x_at) / RFU CD79A (11719716_a_at) / Fold change /veh CD79A (11719716_a_at) / RFU HIST1H1D (11736915_at) / Fold change /veh HIST1H1D (11736915_at) / RFU CASKIN2 (11723855_a_at) / Fold change /veh CASKIN2 (11723855_a_at) / RFU LOC730098 (11760151_x_at) / Fold change /veh LOC730098 (11760151_x_at) / RFU OR4N2 (11742367_at) / Fold change /veh OR4N2 (11742367_at) / RFU PRRT2 (11749266_a_at) / Fold change /veh PRRT2 (11749266_a_at) / RFU SNX32 (11753110_a_at) / Fold change /veh SNX32 (11753110_a_at) / RFU CDHR5 (11726645_a_at) / Fold change /veh CDHR5 (11726645_a_at) / RFU RCAN1 (11760418_a_at) / Fold change /veh RCAN1 (11760418_a_at) / RFU FAM167A (11723789_a_at) / Fold change /veh FAM167A (11723789_a_at) / RFU FAM26E (11764081_at) / Fold change /veh FAM26E (11764081_at) / RFU ISYNA1 (11749810_s_at) / Fold change /veh ISYNA1 (11749810_s_at) / RFU ACY1 (11761880_at) / Fold change /veh ACY1 (11761880_at) / RFU 11764098_at / Fold change /veh 11764098_at / RFU SAMD14 (11745864_x_at) / Fold change /veh SAMD14 (11745864_x_at) / RFU NPB (11741838_a_at) / Fold change /veh NPB (11741838_a_at) / RFU TMPRSS6 (11731388_a_at) / Fold change /veh TMPRSS6 (11731388_a_at) / RFU KRTAP10-2 (11738614_at) / Fold change /veh KRTAP10-2 (11738614_at) / RFU ARHGAP8 /// PRR5-ARHGAP8 (11727945_x_at) / Fold change /veh ARHGAP8 /// PRR5-ARHGAP8 (11727945_x_at) / RFU KRTAP5-7 /// NADSYN1 (11734609_at) / Fold change /veh KRTAP5-7 /// NADSYN1 (11734609_at) / RFU RASL12 (11751679_a_at) / Fold change /veh RASL12 (11751679_a_at) / RFU CDKN2B (11736163_a_at) / Fold change /veh CDKN2B (11736163_a_at) / RFU PRF1 (11729649_at) / Fold change /veh PRF1 (11729649_at) / RFU, ZNF638 /// ZNF638-IT1 / Fold change vs veh, ZNF638 /// ZNF638-IT1 / RFU, PANK3 / Fold change vs veh, PANK3 / RFU, SH3YL1 / Fold change vs veh, SH3YL1 / RFU, ZEB2 / Fold change vs veh, ZEB2 / RFU, NRIP1 / Fold change vs veh, NRIP1 / RFU, PTTG1IP / Fold change vs veh, PTTG1IP / RFU, CAPN2 / Fold change vs veh, CAPN2 / RFU, MED14 / Fold change vs veh, MED14 / RFU, SNORA58 / Fold change vs veh, SNORA58 / RFU, C1orf63 / Fold change vs veh, C1orf63 / RFU, LRRFIP1 / Fold change vs veh, LRRFIP1 / RFU, NDUFAF7 / Fold change vs veh, NDUFAF7 / RFU, SLC12A2 / Fold change vs veh, SLC12A2 / RFU, IBTK / Fold change vs veh, IBTK / RFU, ESF1 / Fold change vs veh, ESF1 / Fold change vs veh, TMEM50B / RFU, TAOK1 / Fold change vs veh, TAOK1 / RFU, ACBD3 / Fold change vs veh, ACBD3 / RFU, TMA16 / Fold change vs veh, TMA16 / RFU, RWDD3 / Fold change vs veh, RWDD3 / RFU, BCAT1 / Fold change vs veh, BCAT1 / RFU, EDEM3 / Fold change vs veh, EDEM3 / RFU, TMEM33 / Fold change vs veh, TMEM33 / RFU, WDR75 / Fold change vs veh, WDR75 / RFU, AHCTF1 / Fold change vs veh, AHCTF1 / RFU, TFRC / Fold change vs veh, TFRC / RFU, ZDHHC17 / Fold change vs veh, ZDHHC17 / RFU, NOM1 / Fold change vs veh, NOM1 / RFU, ARL8B / Fold change vs veh, ARL8B / RFU, ZBTB11 / Fold change vs veh, ZBTB11 / RFU, TAMM41 / Fold change vs veh, TAMM41 / RFU, KIAA1704 /// LOC100996395 / Fold change vs veh, KIAA1704 /// LOC100996395 / RFU, ING1 / Fold change vs veh, ING1 / RFU, TRMT61B / Fold change vs veh, TRMT61B / RFU, FUBP3 / Fold change vs veh, FUBP3 / RFU, TP53 / Fold change vs veh, TP53 / RFU, TNKS2 / Fold change vs veh, TNKS2 / RFU, ZFP14 / Fold change vs veh, ZFP14 / RFU, ACTR2 / Fold change vs veh, ACTR2 / RFU, PPP3R1 / Fold change vs veh, PPP3R1 / RFU, PIK3R1 / Fold change vs veh, PIK3R1 / RFU, HNRNPA1 / Fold change vs veh, HNRNPA1 / RFU, RNF170 / Fold change vs veh, RNF170 / RFU, ZNF28 / Fold change vs veh, ZNF28 / RFU, RNGTT / Fold change vs veh, RNGTT / RFU, OGT / Fold change vs veh, OGT / RFU, BRD1 / Fold change vs veh, BRD1 / RFU, MARS / Fold change vs veh, MARS / RFU, ZNF655 / Fold change vs veh, ZNF655 / RFU, FAHD1 / Fold change vs veh, FAHD1 / RFU, BDP1 / Fold change vs veh, BDP1 / RFU, LRRCC1 / Fold change vs veh, LRRCC1 / RFU, ARID1A / Fold change vs veh, ARID1A / RFU, ZNF146 / Fold change vs veh, ZNF146 / RFU, ZNF330 / Fold change vs veh, ZNF330 / RFU, GPN3 / Fold change vs veh, GPN3 / RFU, C9orf123 / Fold change vs veh, C9orf123 / RFU, N4BP2L2 / Fold change vs veh, N4BP2L2 / RFU, ARFIP1 / Fold change vs veh, ARFIP1 / RFU, FAM179B / Fold change vs veh, FAM179B / RFU, BCL10 / Fold change vs veh, BCL10 / RFU, UHRF1BP1L / Fold change vs veh, UHRF1BP1L / RFU, BET1 / Fold change vs veh, BET1 / RFU, CNOT2 / Fold change vs veh, CNOT2 / RFU, ZNF268 / Fold change vs veh, ZNF268 / Fold change vs veh, ZNF507 / RFU, DGCR2 / Fold change vs veh, DGCR2 / RFU, WDSUB1 / Fold change vs veh, WDSUB1 / Fold change vs veh, HSP90B1 /// MIR3652 / RFU, ADSS / Fold change vs veh, ADSS / RFU, GK / Fold change vs veh, GK / RFU, ZNF148 / Fold change vs veh, ZNF148 / RFU, TAF9 / Fold change vs veh, TAF9 / RFU, SLC1A5 / Fold change vs veh, SLC1A5 / RFU, SLMO2 / Fold change vs veh, SLMO2 / RFU, ABCC4 / Fold change vs veh, ABCC4 / RFU, LOC101060439 /// RAP1B / Fold change vs veh, LOC101060439 /// RAP1B / RFU, RFX7 / Fold change vs veh, RFX7 / RFU, GTPBP10 / Fold change vs veh, GTPBP10 / RFU, CNEP1R1 / Fold change vs veh, CNEP1R1 / RFU, BIVM-ERCC5 /// ERCC5 / Fold change vs veh, BIVM-ERCC5 /// ERCC5 / RFU, ILF3 / Fold change vs veh, ILF3 / RFU 11762660_at / Fold change /veh 11762660_at / RFU VCAN (11757783_s_at) / Fold change /veh VCAN (11757783_s_at) / RFU DDX43 (11728927_at) / Fold change /veh DDX43 (11728927_at) / RFU KRT8 (11758188_x_at) / Fold change /veh KRT8 (11758188_x_at) / RFU NKD1 (11759106_at) / Fold change /veh NKD1 (11759106_at) / RFU SRD5A1 (11742802_a_at) / Fold change /veh SRD5A1 (11742802_a_at) / RFU TPSAB1 /// TPSB2 (11721975_s_at) / Fold change /veh TPSAB1 /// TPSB2 (11721975_s_at) / RFU GSTM3 (11746129_a_at) / Fold change /veh GSTM3 (11746129_a_at) / RFU IL23R (11737362_x_at) / Fold change /veh IL23R (11737362_x_at) / RFU TMEM51 (11727254_a_at) / Fold change /veh TMEM51 (11727254_a_at) / RFU PIWIL2 (11732686_x_at) / Fold change /veh PIWIL2 (11732686_x_at) / RFU ORM1 (11744905_x_at) / Fold change /veh ORM1 (11744905_x_at) / RFU CCDC152 (11743942_at) / Fold change /veh CCDC152 (11743942_at) / RFU ECM1 (11717891_a_at) / Fold change /veh ECM1 (11717891_a_at) / RFU IL23R (11748794_a_at) / Fold change /veh IL23R (11748794_a_at) / RFU TNFAIP8L3 (11732012_x_at) / Fold change /veh TNFAIP8L3 (11732012_x_at) / RFU MBOAT4 (11741988_at) / Fold change /veh MBOAT4 (11741988_at) / RFU 11764193_at / Fold change /veh 11764193_at / RFU TMEM53 (11763286_at) / Fold change /veh TMEM53 (11763286_at) / RFU MAGEB2 (11727129_at) / Fold change /veh MAGEB2 (11727129_at) / RFU TMEM200A (11744735_a_at) / Fold change /veh TMEM200A (11744735_a_at) / RFU CCDC152 (11751479_a_at) / Fold change /veh CCDC152 (11751479_a_at) / RFU FAM211A (11726209_a_at) / Fold change /veh FAM211A (11726209_a_at) / RFU RGS16 (11746705_a_at) / Fold change /veh RGS16 (11746705_a_at) / RFU VCAN (11755009_s_at) / Fold change /veh VCAN (11755009_s_at) / RFU RHOB (11743442_s_at) / Fold change /veh RHOB (11743442_s_at) / RFU RGS16 (11720943_a_at) / Fold change /veh RGS16 (11720943_a_at) / RFU RGS16 (11720944_at) / Fold change /veh RGS16 (11720944_at) / RFU, VPS4B / Fold change vs veh, VPS4B / RFU, CREB1 / Fold change vs veh, CREB1 / RFU, DNAJC13 / Fold change vs veh, DNAJC13 / RFU, GNAQ / Fold change vs veh, GNAQ / RFU, CDK5R1 / Fold change vs veh, CDK5R1 / RFU, ZRANB3 / Fold change vs veh, ZRANB3 / RFU, CUL4A / Fold change vs veh, CUL4A / RFU, CCNY / Fold change vs veh, CCNY / RFU, UFL1 / Fold change vs veh, UFL1 / RFU, COG3 / Fold change vs veh, COG3 / RFU, DIAPH2 / Fold change vs veh, DIAPH2 / RFU, SKA2 / Fold change vs veh, SKA2 / RFU, AFF3 / Fold change vs veh, AFF3 / RFU, LMF1 / Fold change vs veh, LMF1 / RFU, IPO11 / Fold change vs veh, IPO11 / RFU, DFFB / Fold change vs veh, DFFB / RFU, FOXP1 / Fold change vs veh, FOXP1 / RFU, CARD8 / Fold change vs veh, CARD8 / RFU, STRN3 / Fold change vs veh, STRN3 / RFU, ADK / Fold change vs veh, ADK / RFU, RASSF2 / Fold change vs veh, RASSF2 / RFU, WIPF1 / Fold change vs veh, WIPF1 / RFU, LARP1B / Fold change vs veh, LARP1B / RFU, RASA1 / Fold change vs veh, RASA1 / RFU, RB1 / Fold change vs veh, RB1 / RFU, PPFIA1 / Fold change vs veh, PPFIA1 / RFU, MAT2A / Fold change vs veh, MAT2A / RFU, CCT5 / Fold change vs veh, CCT5 / RFU, WDR92 / Fold change vs veh, WDR92 / RFU, CUX1 / Fold change vs veh, CUX1 / RFU, TTC7A / Fold change vs veh, TTC7A / RFU, TMEM135 / Fold change vs veh, TMEM135 / RFU, DEPTOR / Fold change vs veh, DEPTOR / RFU, CPM / Fold change vs veh, CPM / RFU, DNAJB6 / Fold change vs veh, DNAJB6 / RFU, CACNA2D3 / Fold change vs veh, CACNA2D3 / RFU, DTX4 / Fold change vs veh, DTX4 / RFU, TFCP2 / Fold change vs veh, TFCP2 / RFU, GMCL1 /// GMCL1P1 / Fold change vs veh, GMCL1 /// GMCL1P1 / RFU, AEBP2 / Fold change vs veh, AEBP2 / RFU, SNHG1 /// SNORD22 /// SNORD25 /// SNORD26 /// SNORD27 /// SNORD28 /// SNORD29 /// SNORD31 / Fold change vs veh, SNHG1 /// SNORD22 /// SNORD25 /// SNORD26 /// SNORD27 /// SNORD28 /// SNORD29 /// SNORD31 / Fold change (Aza/veh), C12orf56 (ProbeSet 11735607_a_at) / Fold change (ACY-1035/veh), C12orf56 (ProbeSet 11735607_a_at) / Fold change (Aza/veh), FGFR1OP (ProbeSet 11751329_s_at) / Fold change (ACY-1035/veh), FGFR1OP (ProbeSet 11751329_s_at) / Fold change (Aza/veh), VPS36 (ProbeSet 11739960_a_at) / Fold change (ACY-1035/veh), VPS36 (ProbeSet 11739960_a_at) / RFU SYPL1 (11715823_x_at) / Fold change /veh SYPL1 (11715823_x_at) / RFU IGFBP7 (11715501_s_at) / Fold change /veh IGFBP7 (11715501_s_at) / RFU REEP3 (11722064_at) / Fold change /veh REEP3 (11722064_at) / RFU IGLL1 (11728026_x_at) / Fold change /veh IGLL1 (11728026_x_at): dose or concentration left out as unconfirmed
# Details: MV-4-11 cells, 48 hours
structure (smiles),measurement,value
Nc1ccc(-c2cccs2)cc1NC(=O)c1ccc2c(c1)cc(C1CC1)n2CCN1CCOCC1 [ACY-1035],RFU VCAN (11757783_s_at),8.50 RFU
